Test system: male-sterile F1 transgenic plants (CKX1)
Experiment: Fertility restoration: tassel fertility rating after TDZ and kinetin applications
Type: in vivo, corn
Parameters: key: 0: No or very little floral development; x: Advanced floral development observed in some areas of tassels; xx: Increased areas of advanced floral development and anthersis observed in some flowers
Conditions: 0.25% Sylgard 309
Procedure: Two commercially registered chemicals were tested in fertility restoration experiments. Kinetin is a synthetic cytokinin that is not oxidized by CKX1 and TDZ is a known cytokinin oxidase inhibitor. The F1 seeds from the crosses between wild-type plants and several male-sterile R0 events were planted. NPTII ELISA positive plants were identified as the male-sterile transgenic plants among F1 segregating populations by enzyme-linked immunosorbent assays (ELISA, Example 3) performed on leaf samples collected at the seedling stage of all plants. Identified plants were treated at the V4, V7 and V10 stages. The application rates for each plant were 0, 10, 20, 30, and 100 mg of kinetin with or without 3 mg of TDZ in the presence of 0.25% of Sylgard 309 surfactant (Willbur-Ellis, Fresno, Calif.). One to three plants were tested at a particular rate combination.
The NPTII ELISA tests were thus used to select male sterile F1 transgenic plants for chemical treatments. […] These chemical application conditions were not sufficient to produce fully fertile plants. The degree of floral development restoration varied and was limited to older tissues of the tassel. […] Table 3 details tassel fertility rating of the restoration study.
Two to three transgenic F1 plants were used in each treatment group. Plants were either treated repeatedly in three different rates at three V4, V7 and V10 developmental stages or once in a higher rate at V7 developmental stage. Rates are indicated by mg/plant of TDZ and kinetin, respectively, in the presence of 0.25% of Sylgard 309 surfactant. The fertility rating was based on the visual observation. 0, No or very little floral development; x, Advanced floral development observed in some areas of tassels; xx, Increased areas of advanced floral development and anthersis observed in some flowers.

Measured: tassel fertility rating

c1coc(CNc2ncnc3[nH]cnc23)c1 [kinetin]
0: line 16400, TDZ 0, kinetin 20 mg/plant, applications at V4 + V7 + V10 | line 16400, TDZ 0, kinetin 100 mg/plant, application at V7 | line 16409, TDZ 0, kinetin 20 mg/plant, applications at V4 + V7 + V10 | line 16409, TDZ 0, kinetin 100 mg/plant, application at V7 | line 16802, TDZ 0, kinetin 20 mg/plant, applications at V4 + V7 + V10 | line 16802, TDZ 0, kinetin 100 mg/plant, application at V7 | line 16825, TDZ 0, kinetin 20 mg/plant, applications at V4 + V7 + V10 | line 16825, TDZ 0, kinetin 100 mg/plant, application at V7 | line 16832, TDZ 0, kinetin 20 mg/plant, applications at V4 + V7 + V10 | line 16832, TDZ 0, kinetin 100 mg/plant, application at V7

From US7951997B2, “Reversible male sterility in transgenic plants by expression of cytokinin oxidase” (Monsanto Technology LLC, priority 2001, dated 2011)
